Reference: ChEMBL document CHEMBL3792350, “Discovery of a Potent and Orally Efficacious TGR5 Receptor Agonist” (ACS Med Chem Lett, 2016)

Assays:
Type in all cases: ADME, organism-based
[1] = Oral bioavailability in Sprague-Dawley rat at 3 mg/kg administered via oral gavage by LC-MS/MS analysis; conditions: in vivo
[2] = Clearance in C57Bl/6 mouse at 1 mg/kg, iv as bolus dose by LC-MS/MS analysis; conditions: in vivo
Mus musculus = experiment: fAUC in po dosed diet-induced obese C57 mouse administered as single dose 15 mins; conditions: in vivo, 0.25 h
[3] = Cmax in Sprague-Dawley rat at 3 mg/kg administered via oral gavage by LC-MS/MS analysis; design: dose 3 mg/kg, route oral; conditions: in vivo
[4] = Volume of distribution at steady state in C57Bl/6 mouse at 1 mg/kg, iv as bolus dose by LC-MS/MS analysis; conditions: in vivo, read-out: Vdss
[5] = Oral bioavailability in C57Bl/6 mouse at 3 mg/kg administered via oral gavage by LC-MS/MS analysis; conditions: in vivo
[6] = AUC in C57Bl/6 mouse at 3 mg/kg administered via oral gavage by LC-MS/MS analysis; conditions: in vivo
[7] = Clearance in Sprague-Dawley rat at 1 mg/kg, iv as bolus dose by LC-MS/MS analysis; conditions: in vivo
[8] = Half life in C57Bl/6 mouse at 1 mg/kg, iv as bolus dose by LC-MS/MS analysis; conditions: in vivo
[9] = Half life in Sprague-Dawley rat at 1 mg/kg, iv as bolus dose by LC-MS/MS analysis; conditions: in vivo
[10] = Volume of distribution at steady state in Sprague-Dawley rat at 1 mg/kg, iv as bolus dose by LC-MS/MS analysis; conditions: in vivo, read-out: Vdss
[11] = Cmax in C57Bl/6 mouse at 3 mg/kg administered via oral gavage by LC-MS/MS analysis; design: dose 3 mg/kg, route oral; conditions: in vivo
[12] = AUC in Sprague-Dawley rat at 3 mg/kg administered via oral gavage by LC-MS/MS analysis; conditions: in vivo

Row | SMILES | bioavailability [1] | clearance [2] | fAUC (Mus musculus) | Cmax [3] | Vd [4] | bioavailability [5] | AUC [6] | clearance [7] | half-life [8] | half-life [9] | Vd [10] | Cmax [11] | AUC [12]
1 | COc1ccc(C(C)(C)c2cnc(SCCOc3ccc(-n4ccnc4)cc3)n2-c2ccc(F)cc2)cc1OC | 31% | 47.3 mL/min/kg | 231.38 ng·h/mL | 148 ng/mL | 0.83 L/kg | 71% | 754 ng·h/mL | 79.7 mL/min/kg | 19.8 min | 19.2 min | 2.05 L/kg | 789 ng/mL | 207 ng·h/mL
2 | COc1ccc(C(C)(C)c2cnc(SCc3c(F)cccc3Cl)n2-c2ccc(F)cc2)cc1OC | – | 45.5 mL/min/kg | – | – | 1.54 L/kg | 7% | 73.5 ng·h/mL | – | 45.6 min | – | – | 51.8 ng/mL | –
